From paper PMC8041284, “Tunable Methacrylamides for Covalent Ligand Directed Release Chemistry” (Journal of the American Chemical Society, 2021)
*1 amine or outer side, *2 acyl side, *3 side chain or, on linkers, in order; H or OH if unused. Where a SMILES comes first, the peptide text is derived from it. Bridges are numbered along the chain shown (N, C = ends). [ ]: non-standard residue; d: D form. The star is where a group is joined. pTerphenylCO(4''-OnC5H11) = CCCCCOc1ccc(-c2ccc(-c3ccc(C(=O)*)cc3)cc2)cc1; Orn(4R-OH,5R-OH) = O=C([C@H](C[C@@H](O)[C@@H](O)N[*:3])N[*:1])[*:2]; hTyr(3S-OH,4S-OH) = N[C@H](C(=O)O)[C@H](O)[C@@H](O)c1ccc(O)cc1; Pro(3S-OH,4S-Me) = C[C@H]1CN[C@H](C(=O)O)[C@H]1O; Hyp = O=C(O)[C@@H]1C[C@@H](O)CN1

Biological target: BTK (Homo sapiens, UniProt Q06187)
Experiment: biochemical
Settings: read-out: BTK inhibition (%), 0.75 uM BTK, […] probe 3l, 15 min preincubation

Sequence of BTK (Q06187 402-655 limits assumed): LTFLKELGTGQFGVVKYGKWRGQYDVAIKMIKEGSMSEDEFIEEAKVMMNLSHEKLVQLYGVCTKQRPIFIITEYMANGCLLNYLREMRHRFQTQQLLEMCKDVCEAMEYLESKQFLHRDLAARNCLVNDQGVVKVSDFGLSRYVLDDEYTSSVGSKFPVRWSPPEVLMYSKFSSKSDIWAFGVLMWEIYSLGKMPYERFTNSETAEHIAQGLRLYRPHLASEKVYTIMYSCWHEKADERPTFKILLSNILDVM

SMILES	inhibition at 10 µM
CC(=O)O[C@H]1C[C@H](O[C@H]2[C@@H](O)C[C@H](O[C@H]3[C@@H](O)C[C@H](O[C@H]4CC[C@@]5(C)[C@H](CC[C@@H]6[C@@H]5C[C@@H](O)[C@]5(C)[C@@H](C7=CC(=O)OC7)CC[C@]65O)C4)O[C@@H]3C)O[C@@H]2C)O[C@H](C)[C@H]1O[C@@H]1O[C@H](CO)[C@@H](O)[C@H](O)[C@H]1O [PCM-0216197]	-4.6%
CCCCOCc1ccc(O)c(OC)c1 [PCM-0215915]	-15.6%
c1ccc(-c2nn3c(c2-c2ccnc4cc(OCCN5CCOCC5)ccc24)CCC3)nc1 [PCM-0095413]	-24.7%
CC(ONC(=O)c1cc(C(F)(F)F)cc(C(F)(F)F)c1)C(=O)Nc1ccc(Cl)cc1 (centres unmarked) [PCM-0215433]	7.7%
Nc1ccnc(=O)[nH]1 [PCM-0215139]	-5.4%
Cc1cc(N=Nc2ccc(S(=O)(=O)Nc3ccccn3)cc2)c(N)cc1O [PCM-0215414]	76.4%
C[C@@H]1CC[C@H]2[C@@H](C)C(=O)O[C@@H]3O[C@@]4(C)CC[C@@H]1[C@]32OO4 [PCM-0214642]	8.6%
CS(=O)(=O)OCCCCOS(C)(=O)=O [PCM-0085767]	-1.4%
COc1ccc(C2CNC(=O)C2)cc1OC1CCCC1 (centres unmarked) [PCM-0065474]	13.2%
CCCc1ccc(OCC(=O)N(Cc2nc(-c3cccnc3)no2)C(C)C)cc1 [PCM-0215326]	-16.2%
Cc1ccccc1-n1c(Cn2ncc3c(N)ncnc32)nc2cccc(C)c2c1=O [PCM-0095248]	4.1%
CC(C)Oc1ccc(-c2nn([C@@H](C)c3oc4ccc(F)cc4c(=O)c3-c3cccc(F)c3)c3ncnc(N)c23)cc1F [PCM-0215802]	-2.1%
O=C(NCCCn1ccnc1)c1cc(-c2ccco2)on1 [PCM-0215720]	-9.3%
O=C1CCc2ccccc2O1 [PCM-0216624]	-9.3%
COCCNc1cc(NC(=O)N2CCCc3cc(CN4CCN(C)CC4=O)c(C=O)nc32)ncc1C#N [PCM-0216117]	-16.2%
CCCCCCCCCC(=O)N[C@@H](Cc1c[nH]c2ccccc12)C(=O)N[C@H](CC(N)=O)C(=O)N[C@@H](CC(=O)O)C(=O)N[C@@H]1C(=O)NCC(=O)N[C@@H](CCCN)C(=O)N[C@@H](CC(=O)O)C(=O)N[C@H](C)C(=O)N[C@@H](CC(=O)O)C(=O)NCC(=O)N[C@H](CO)C(=O)N[C@@H]([C@H](C)CC(=O)O)C(=O)N[C@@H](CC(=O)c2ccccc2N)C(=O)O[C@@H]1C [PCM-0095008]	-1.6%
CSC[C@H](N)C(=O)O [PCM-0215958]	2.6%
CC(=O)Nc1ccc(OC(=O)c2ccccc2OC(C)=O)cc1 [PCM-0216013]	2.1%
CCNC(=O)c1noc(-c2cc(Cl)c(O)cc2O)c1-c1ccc(OC)cc1 [PCM-0215317]	11.6%
COc1c(O)c(C)cc2c1C(=O)c1c(O)cccc1C2=O [PCM-0216457]	64.1%
COc1c2c(cc3oc(CO[C@@H]4O[C@H](CO)[C@@H](O)[C@H](O)[C@H]4O)cc(=O)c13)O[C@H](C(C)(C)O)C2 [PCM-0216346]	7.7%
OC1CCC(Nc2ncc3nc(Nc4c(F)cc(F)cc4F)n([C@H]4CCOC4)c3n2)CC1 (some centres unmarked) [PCM-0214575]	-10.3%

SMILES	inhibition at 10 µM
NC(=O)Nc1cc(-c2cccc(F)c2)sc1C(=O)N[C@H]1CCCNC1 [PCM-0095092]	86.9%
COc1cc(S(=O)(=O)O)ccc1O [PCM-0215143]	-7%
CCC1=C[C@@H]2CN3CCc4c([nH]c5ccccc45)[C@@](C(=O)OC)(C2)[C@@H]13 [PCM-0085818]	8.6%
O=S(=O)(O)c1cc(O)ccc1O [PCM-0086281]	3.9%
CN(C)CCOc1ccc(/C(=C(/CCCl)c2ccccc2)c2ccccc2)cc1 [PCM-0086582]	4.1%
CC(C)C[C@H](NC(=O)[C@@H](NC(=O)c1cccc(-c2ccccc2)n1)[C@@H](C)O)B(O)O [PCM-0214714]	6.2%
C[C@H](NC(=O)Cc1cc(F)cc(F)c1)C(=O)N[C@@H]1C(=O)N(C)c2ccccc2-c2ccccc21 [PCM-0095414]	4.8%
CC(C)=CCC[C@](C)(O[C@@H]1O[C@H](CO[C@@H]2O[C@@H](CO)[C@H](O)[C@H]2O)[C@@H](O)[C@H](O)[C@H]1O)[C@H]1CC[C@]2(C)[C@@H]1[C@H](O)C[C@@H]1[C@@]3(C)CC[C@H](O[C@@H]4O[C@H](CO)[C@@H](O)[C@H](O)[C@H]4O[C@@H]4O[C@H](CO)[C@@H](O)[C@H](O)[C@H]4O)C(C)(C)[C@@H]3CC[C@]12C [PCM-0216509]	-10%
N#Cc1ccc(-c2csc(NN=C3CCCC3)n2)cc1 [PCM-0215381]	43.2%
CNc1cc(-c2cccc(Cl)c2Cl)nc(N)n1 [PCM-0215511]	-13.1%
CC(C)c1ccccc1Cc1cc(C(=O)Nc2ccc(S(=O)(=O)c3ccccc3C(C)(C)C)cc2)c(O)c(O)c1O [PCM-0094924]	54.5%
Cn1cc(C[C@@H](N)C(=O)O)c2ccccc21 [PCM-0215432]	-11.1%
COC(=O)[C@]12CCC(C)(C)C[C@H]1[C@H]1C(=O)C=C3[C@@]4(C)C=C(C#N)C(=O)C(C)(C)[C@@H]4CC[C@@]3(C)[C@]1(C)CC2 [PCM-0215239]	16.6%
COCCn1c2c([n+](Cc3cnccn3)c1C)C(=O)c1ccccc1C2=O [PCM-0094937]	-17.9%
Cc1cc(Nc2cc(CN3CCOCC3)c3nc(C)c(Cc4ccc(Cl)cc4F)n3n2)n[nH]1 [PCM-0095222]	56.6%
O=C(O)CCCC[C@@H]1SC[C@@H]2NC(=O)N[C@@H]21 [PCM-0085973]	0%
CCN1CCN(C(=O)Cc2ccc(Nc3ncc(F)c(Nc4ccc(C(=O)Nc5ccccc5Cl)cc4)n3)cc2)CC1 [PCM-0095121]	40.7%
C=CCNC1=C2C[C@@H](C)C[C@H](OC)[C@H](O)[C@@H](C)/C=C(\C)[C@H](OC(N)=O)[C@@H](OC)/C=C\C=C(/C)C(=O)NC(=CC1=O)C2=O [PCM-0094959]	14%
C=C1C[C@@]23CC[C@H]4[C@@](C)(CCC[C@@]4(C)C(=O)O[C@@H]4O[C@H](CO)[C@@H](O)[C@H](O)[C@H]4O)[C@@H]2CC[C@]1(O[C@@H]1O[C@H](CO)[C@@H](O)[C@H](O[C@@H]2O[C@H](CO)[C@@H](O)[C@H](O)[C@H]2O)[C@H]1O[C@@H]1O[C@H](CO)[C@@H](O)[C@H](O)[C@H]1O)C3 [PCM-0215017]	0.8%
CCCCC[C@](C)(O)/C=C/[C@@H]1[C@@H](C/C=C\CCCC(=O)O)[C@@H](O)C[C@H]1O [PCM-0216577]	-3.9%
Cc1cc2c(C(=O)NC[C@H](C)c3ccccc3)c(O)c(O)cc2c(O)c1-c1c(C)cc2c(C(=O)NC[C@H](C)c3ccccc3)c(O)c(O)cc2c1O [PCM-0215358]	113%
COCC1=C(C(=O)OC(C)OC(=O)OC(C)C)N2C(=O)[C@@H](NC(=O)/C(=N\OC)c3csc(N)n3)[C@H]2SC1 (some centres unmarked) [PCM-0216141]	-11.6%

SMILES	inhibition at 10 µM
CC12CC(c3ccoc3)OC13CC(OC3=O)C1C3CC(CC12)OC3=O (centres unmarked) [PCM-0216321]	2.3%
Cn1cncc1[C@@](N)(c1ccc(Cl)cc1)c1ccc2c(c1)c(-c1cccc(Cl)c1)cc(=O)n2C [PCM-0095125]	17.9%
COC(=O)C1=C(C)NC(C)=C(C(=O)OCC(C)C)C1c1ccccc1[N+](=O)[O-] (centres unmarked) [PCM-0086426]	31.1%
COc1ccc2cc(C(=O)O)ccc2c1 [PCM-0216054]	-9.3%
CC(=O)O[C@]1(C(C)=O)CC[C@H]2[C@@H]3CCC4=CC(=O)CCC4=C3[C@@H](c3ccc(N(C)C)cc3)C[C@@]21C [PCM-0095563]	38.9%
Cc1cc(C)cc(Oc2ccc(CNC(=O)[C@H](C)N)cc2C)c1 [PCM-0215829]	-17.8%
CCc1cc(C(N)=S)ccn1 [PCM-0086071]	-14.8%
CC1(C)[C@@H]2CC[C@@]1(C)C(=O)C2 [PCM-0214819]	1.6%
C=CC(C)(O)CCC=C(C)C (centres unmarked) [PCM-0091203]	-9.3%
O=C1C=C2C=C[C@@H](O)[C@H](O)[C@H]2O1 [PCM-0216441]	25.5%
Cc1[nH]nc2ncc(C(=O)N3CCC[C@H]3c3ccc(Cl)cc3)cc12 [PCM-0215837]	6.2%
C[C@@H]1O[C@@H](O[C@@H]2[C@@H](O)[C@H](OCCc3ccc(O)c(O)c3)O[C@H](COC(=O)/C=C/c3ccc(O)c(O)c3)[C@H]2O)[C@H](O)[C@H](O)[C@H]1O [PCM-0216411]	-11.6%
CCCc1nc(C)c2c(=O)[nH]c(-c3cc(S(=O)(=O)N4CCN(CC)CC4)ccc3OCC)nn12 [PCM-0086229]	-10.9%
C=CCc1cc(OC)c(OC)c(OC)c1 [PCM-0215912]	3.1%
O=C(Nc1ccccc1-c1cn2c(CN3CCNCC3)csc2n1)c1cnc2ccccc2n1 [PCM-0094935]	10.3%
CCN(c1cc(-c2ccc(CN3CCOCC3)cc2)cc(C(=O)NCc2c(C)cc(C)[nH]c2=O)c1C)C1CCOCC1 [PCM-0095796]	-2.6%
CCN(CCO)CCCOc1ccc2c(Nc3cc(CC(=O)Nc4cccc(F)c4)[nH]n3)ncnc2c1 [PCM-0094969]	66.9%
CO/N=C(\C(=O)N[C@@H]1C(=O)N2C(C(=O)OC(C)OC(C)=O)=C(COC(N)=O)CS[C@H]12)c1ccco1 (some centres unmarked) [PCM-0215079]	2.8%
CCCCCOc1ccc(-c2ccc(-c3ccc(C(=O)N[C@H]4C[C@@H](O)[C@@H](O)NC(=O)[C@@H]5[C@@H](O)[C@@H](C)CN5C(=O)[C@H]([C@@H](C)O)NC(=O)[C@H]([C@H](O)[C@@H](O)c5ccc(O)cc5)NC(=O)[C@@H]5C[C@@H](O)CN5C(=O)[C@H]([C@@H](C)O)NC4=O)cc3)cc2)cc1 [PCM-0214798] ({pTerphenylCO(4''-OnC5H11)}-[Orn(4R-OH,5R-OH)]T[Hyp][hTyr(3S-OH,4S-OH)]T[Pro(3S-OH,4S-Me)]; lactam 1-C)	122%
COc1ccc(-c2oc3c(CC=C(C)C)c(O)cc(O)c3c(=O)c2O[C@@H]2O[C@@H](C)[C@H](O)[C@@H](O)[C@H]2O)cc1 [PCM-0214963]	6.2%
CCOC(=O)c1ccc(NC(=O)O[C@H]2[C@H](OC(=O)Nc3ccc4c(c3)OCO4)[C@@H](OC(=O)Nc3ccc4c(c3)OCO4)[C@@H](OC)O[C@@H]2CO)cc1 [PCM-0215463]	98.1%
